Patent publication US20250228239A1, “MOLECULES HAVING PESTICIDAL UTILITY, AND INTERMEDIATES, COMPOSITIONS, AND PROCESSES, RELATED THERETO” (priority 2024, published 2025)
Like-named read-outs stand apart in the source and are kept apart here.

Experiments:
Format in all cases: in vivo
[1] = system: Beet Armyworm (Spodoptera exigua, LAPHEG); test: Bioassays on Beet Armyworm (BAW), 128-well diet tray assay; settings: Spodoptera exigua; for mortality at 50 µg/cm2: 168 h, second instar larvae, 50 μg/cm^2 of test molecule on artificial diet, 25° C., five to seven days, average of eight wells, read-out: BAW % Control (or Mortality) rating
How it was run: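 Mortality of second-instar larvae (1–5/well) on artificial diet treated with 50 μg/cm^2 compound, read after 5–7 days at 25° C.; values are means of eight wells.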

[2] = system: Yellow Fever Mosquito (Aedes aegypti, AEDSAE); settings: for YFM rating: Yellow Fever Mosquito, Table ABC / ABC-DP rating; for YFM % Control (or Mortality) rating: about 1 day-old larvae, 4000 ppm master solution diluted with 90:10 water/acetone, 15 μL per well plus 220 μL larval mixture, 3 days; for YFM: Table ABC: Biological Results, species YFM
How it was run: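 Larvae ~1 day old, in liver powder/water; compound from 4000 ppm DMSO stock diluted with water/acetone (90:10); 6 reps; lidded, RT, 3 d; mortality scored per well, rated.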

[3] = system: Cabbage Looper (Trichoplusia ni, TRIPNI); test: Bioassays on Cabbage Looper (CL), 128-well diet tray assay; settings: Trichoplusia ni; for mortality at 50 µg/cm2: 168 h, second instar larvae, 50 μg/cm^2 of test molecule on artificial diet, 25° C., five to seven days, average of eight wells, read-out: CL % Control (or Mortality) rating
How it was run: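 Diet tray, 2nd instar, 1–5 larvae/well; 50 μg/cm^2 compound surface-applied (acetone:water 90:10), dried; 8 wells/treatment; 25° C, 14:10 L:D, 5–7 d; % mortality, mean of 8 wells.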

[4] = Beet Armyworm, Table ABC / ABC-DP rating, read-out: BAW rating
[5] = Cabbage Looper, Table ABC / ABC-DP rating, read-out: CL rating
[6] = Table ABC: Biological Results, species BAW, read-out: BAW
[7] = Table ABC: Biological Results, species CL, read-out: CL

| SMILES | mortality at 50 µg/cm2 [1] [%] | pest or weed control at 50 µg/cm2 [1, 4] [%] | YFM rating [2] | YFM % Control (or Mortality) rating [2] | mortality at 50 µg/cm2 [3] [%] | pest or weed control at 50 µg/cm2 [3, 5] [%] | pest or weed control at 50 µg/cm2 [1, 6] [%] | YFM [2] | pest or weed control at 50 µg/cm2 [3, 7] [%] |
| --- | --- | --- | --- | --- | --- | --- | --- | --- | --- |
| CC(C)=NNC(=O)c1cc(NC(=O)[C@H]2[C@H](c3cc(Cl)cc(Cl)c3)C2(Cl)Cl)ccc1Cl (relative stereo) [F3010, trans-2,2-Dichloro-N-(4-chloro-3-(2-(propan-2-ylidene)hydrazine-1-carbonyl)phenyl)-3-(3,5-dichlorophenyl)cyclopropane-1-carboxamide] | 50 to 100 | 50 to 100 | A (80–100) | A (80–100) | 50 to 100 | 50 to 100 | – | – | – |
| Nc1c(F)ccc(NC(=O)c2cc(NC(=O)[C@H]3[C@H](c4ccc(Cl)c(Cl)c4)C3(Cl)Cl)ccc2Cl)c1F [DP2, N-(3-Amino-2,4-difluorophenyl)-2-chloro-5-((1R,3R)-2,2-dichloro-3-(3,4-dichlorophenyl)cyclopropane-1-carboxamido)benzamide] | 50 to 100 | 50 to 100 | A (80–100) | A (80–100) | 50 to 100 | 50 to 100 | – | – | – |
| Nc1cc(NC(=O)c2cc(NC(=O)[C@H]3[C@H](c4ccc(Cl)c(Cl)c4)C3(Cl)Cl)ccc2Cl)c(F)cc1F [DP5, N-(5-Amino-2,4-difluorophenyl)-2-chloro-5-((1R,3R)-2,2-dichloro-3-(3,4-dichlorophenyl)cyclopropane-1-carboxamido)benzamide] | 50 to 100 | 50 to 100 | A (80–100) | A (80–100) | 50 to 100 | 50 to 100 | – | – | – |
| CC(C)(C)OC(=O)N(C(=O)OC(C)(C)C)c1c(F)ccc(NC(=O)c2cc(NC(=O)[C@H]3[C@H](c4ccc(Cl)c(Cl)c4)C3(Cl)Cl)ccc2Cl)c1F [DP7, tert-Butyl-N-((tert-butoxy)carbonyl)-N-(3-(2-chloro-5-((1R,3R)-2,2-dichloro-3-(3,4-dichlorophenyl)cyclopropane-1-carboxamido)benzamido)-2,6-difluorophenyl)carbamate] | 50 to 100 | 50 to 100 | – | D (No activity noticed in this bioassay) | 0 to 50 | 0 to 50 | – | – | – |
| Nc1c(F)ccc(NC(=O)c2cc(NC(=O)[C@H]3[C@H](c4ccc(F)c(C(F)(F)F)c4)C3(Cl)Cl)ccc2Cl)c1F [DP9, N-(3-amino-2,4-difluorophenyl)-2-chloro-5-((1R,3R)-2,2-dichloro-3-(4-fluoro-3-(trifluoromethyl)phenyl)cyclopropane-1-carboxamido)benzamide] | 50 to 100 | 50 to 100 | A (80–100) | A (80–100) | 50 to 100 | 50 to 100 | – | – | – |
| CC(C)(C)OC(=O)N(C(=O)OC(C)(C)C)c1cc(NC(=O)c2cc(NC(=O)[C@H]3[C@H](c4ccc(Cl)c(Cl)c4)C3(Cl)Cl)ccc2Cl)c(F)cc1F [DP12, tert-Butyl-N-((tert-butoxy)carbonyl)-N-(5-(2-chloro-5-((1R,3R)-2,2-dichloro-3-(3,4-dichlorophenyl)cyclopropane-1-carboxamido)benzamido)-2,4-difluorophenyl)carbamate] | 50 to 100 | 50 to 100 | – | D (No activity noticed in this bioassay) | 50 to 100 | 50 to 100 | – | – | – |
| O=C(Nc1ccc(F)cc1F)c1cc(NC(=O)C2C(c3cc(Br)cc(S(F)(F)(F)(F)F)c3)C2(Cl)Cl)ccc1Cl (stereo not drawn) [F1032, cis-5-(3-(3-Bromo-5-(pentafluoro-λ^6-sulfanyl)phenyl)-2,2-dichiorocyclopropane-1-carboxamido)-2-chloro-N-(2,4-difluorophenyl)benzamide] | – | – | – | – | – | – | 50 to 100 | A (80–100) | 50 to 100 |
| CC(C)(C)OC(=O)Nc1c(F)ccc(NC(=O)c2cc(NC(=O)[C@H]3[C@H](c4ccc(F)c(C(F)(F)F)c4)C3(Cl)Cl)ccc2Cl)c1F [F1053, tert-Butyl-(3-(2-chloro-5-((1R,3R)-2,2-dichloro-3-(4-fluoro-3-(trifluoromethyl)phenyl)cyclopropane-1-carboxamido)benzamido)-2,6-difluorophenyl)carbamate] | – | – | – | – | – | – | 50 to 100 | A (80–100) | 50 to 100 |
| O=C(Nc1ccc(F)c(NC(=O)C(F)(F)F)c1F)c1cc(NC(=O)[C@H]2[C@H](c3ccc(Cl)c(Cl)c3)C2(Cl)Cl)ccc1Cl [F1064, 2-Chloro-5-((1R,3R)-2,2-dichloro-3-(3,4-dichlorophenyl)cyclopropane-1-carboxamido)-N-(2,4-difluoro-3-(2,2,2-trifluoroacetamido)phenyl)benzamide] | – | – | – | – | – | – | 50 to 100 | A (80–100) | 50 to 100 |
| O=C(Nc1ccc(F)c(NC(=O)C(F)F)c1F)c1cc(NC(=O)[C@H]2[C@H](c3ccc(Cl)c(Cl)c3)C2(Cl)Cl)ccc1Cl [F1065, 2-Chloro-5-((1R,3R)-2,2-dichloro-3-(3,4-dichlorophenyl)cyclopropane-1-carboxamido)-N-(3-(2,2-difluoroacetamido)-2,4-difluorophenyl)benzamide] | – | – | – | – | – | – | 50 to 100 | A (80–100) | 50 to 100 |
| CC(C)(C)OC(=O)Nc1c(F)ccc(NC(=O)c2cc(NC(=O)[C@@H]3[C@@H](c4ccc(F)c(C(F)(F)F)c4)C3(Cl)Cl)ccc2Cl)c1F [F1074, tert-Butyl-(3-(2-chloro-5-((1S,3S)-2,2-dichloro-3-(4-fluoro-3-(trifluoromethyl)phenyl)cyclopropane-1-carboxamido)benzamido)-2,6-difluorophenyl)carbamate] | – | – | – | – | – | – | 50 to 100 | A (80–100) | 50 to 100 |
| CC(=O)Nc1c(F)ccc(NC(=O)c2cc(NC(=O)[C@H]3[C@H](c4ccc(F)c(C(F)(F)F)c4)C3(Cl)Cl)ccc2Cl)c1Cl [F1161, N-(3-Acetamido-2-chloro-4-fluorophenyl)-2-chloro-5-((1R,3R)-2,2-dichloro-3-(4-fluoro-3-(trifluoromethyl)phenyl)cyclopropane-1-carboxamido)benzamide] | – | – | – | – | – | – | 50 to 100 | A (80–100) | 50 to 100 |
| O=C(Nc1ccc(F)c(NC(=O)C(F)(F)F)c1F)c1cc(NC(=O)[C@H]2[C@H](c3ccc(F)c(C(F)(F)F)c3)C2(Cl)Cl)ccc1Cl [F1169, 2-chloro-5-((1R,3R)-2,2-dichloro-3-(4-fluoro-3-(trifluoromethyl)phenyl)cyclopropane-1-carboxamido)-N-(2,4-difluoro-3-(2,2,2-trifluoroacetamido)phenyl)benzamide] | – | – | – | – | – | – | 50 to 100 | A (80–100) | 50 to 100 |
| O=C(Nc1ccc(F)c(NC(=O)C(F)(F)Cl)c1F)c1cc(NC(=O)[C@H]2[C@H](c3ccc(F)c(C(F)(F)F)c3)C2(Cl)Cl)ccc1Cl [F1170, 2-Chloro-N-(3-(2-chloro-2,2-difluoroacetamido)-2,4-difluorophenyl)-5-((1R,3R)-2,2-dichloro-3-(4-fluoro-3-(trifluoromethyl)phenyl)cyclopropane-1-carboxamido)benzamide] | – | – | – | – | – | – | 50 to 100 | A (80–100) | 50 to 100 |
| O=C(Nc1ccc(F)c(NC(=O)C(Cl)Cl)c1F)c1cc(NC(=O)[C@H]2[C@H](c3ccc(F)c(C(F)(F)F)c3)C2(Cl)Cl)ccc1Cl [F1174, 2-Chloro-5-((1R,3R)-2,2-dichloro-3-(4-fluoro-3-(trifluoromethyl)phenyl)cyclopropane-1-carboxamido)-N-(3-(2,2-dichloroacetamido)-2,4-difluorophenyl)benzamide] | – | – | – | – | – | – | 50 to 100 | A (80–100) | 50 to 100 |
| O=C(Nc1ccc(F)c(NC(=O)C(F)F)c1F)c1cc(NC(=O)[C@H]2[C@H](c3ccc(F)c(C(F)(F)F)c3)C2(Cl)Cl)ccc1Cl [F1175, 2-Chloro-5-((1R,3R)-2,2-dichloro-3-(4-fluoro-3-(trifluoromethyl)phenyl)cyclopropane-1-carboxamido)-N-(3-(2,2-difluoroacetamido)-2,4-difluorophenyl)benzamide] | – | – | – | – | – | – | 50 to 100 | A (80–100) | 50 to 100 |
| NCCCC(=O)Nc1c(F)ccc(NC(=O)c2cc(NC(=O)[C@H]3[C@H](c4ccc(Cl)c(Cl)c4)C3(Cl)Cl)ccc2Cl)c1F [F1201, N-(3-(4-Aminobutanamido)-2,4-difluorophenyl)-2-chloro-5-((1R,3R)-2,2-dichloro-3-(3,4-dichlorophenyl)cyclopropane-1-carboxamido)benzamide] | – | – | – | – | – | – | 50 to 100 | A (80–100) | 50 to 100 |
